Tested on: T1, trypsin-like protease (trypsin) from Litopenaeus vannamei
T1 construct: native, purified from hepatopancreas (ammonium sulfate, Q-Sepharose FF); single band about 33 kDa on SDS-PAGE
Assay: absorbance at […] nm, Lineweaver-Burk plot
Format: biochemical, Penaeus vannamei
Conditions: 20 mM Tris-HCl pH 8.0, 37 °C, 20 min, 0.4-2.4 mM substrate; untreated control (no cold plasma)

Km: 4.16 ± 0.01 mM
Compound: N=C(N)NCCCC(NC(=O)c1ccccc1)C(=O)Nc1ccc([N+](=O)[O-])cc1 (racemic) [BAPNA]

From paper PMC9105110, “Changes in Biochemical Properties and Activity of Trypsin-like Protease (Litopenaeus vannamei) Treated by Atmospheric Cold Plasma (ACP)” (Foods, 2022)
